For 8 cell lines, relative viability results are on record in the supplement of paper PMC10307832.

Common to all, as to assay: relative viability (nuclei count vs DMSO), 5 days (fraction); higher = more cells survive
Compound in the assay “IU1-47 + OSI-027”: CC1=CC(=C(N1C2=CC=C(C=C2)Cl)C)C(=O)CN3CCCCC3 [IU1-47] + COc1cccc2cc(-c3nc([C@H]4CC[C@H](C(=O)O)CC4)n4ncnc(N)c34)[nH]c12 [OSI-027] (partner 0.5 µM)
An outline of the steps: (§1)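 Nuclei were stained with Hoechst during a one-step fixation (final 0.05% Triton X-100, 1% formaldehyde, 1 ug/ml Hoechst) carried out 5 days after dosing, then counted on 4× images. The cells, lung cancer lines in 1536-well plates, had been dosed by pin tool the day after seeding with one drug alone or a fixed anchor-drug dose plus five library-drug doses (not always all listed) in √10 steps. Relative viability is the nuclei count in treated wells divided by that in vehicle wells, and each value is the median of duplicate plates.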

Compound in the assay “FG-4592 + Alpelisib”: Cc1nc(C(=O)NCC(=O)O)c(O)c2ccc(Oc3ccccc3)cc12 [FG-4592] + Cc1nc(NC(=O)N2CCC[C@H]2C(N)=O)sc1-c1ccnc(C(C)(C)C(F)(F)F)c1 [Alpelisib] (partner 2 µM)
An outline of the steps:
as §1

Compound in the assay “IU1-47 + AZD7762”: CC1=CC(=C(N1C2=CC=C(C=C2)Cl)C)C(=O)CN3CCCCC3 [IU1-47] + NC(=O)Nc1cc(-c2cccc(F)c2)sc1C(=O)N[C@H]1CCCNC1 [AZD7762] (partner 0.2 µM)
An outline of the steps: as §1

Compound in the assay “IU1-47 + Tozasertib”: CC1=CC(=C(N1C2=CC=C(C=C2)Cl)C)C(=O)CN3CCCCC3 [IU1-47] + Cc1cc(Nc2cc(N3CCN(C)CC3)nc(Sc3ccc(NC(=O)C4CC4)cc3)n2)n[nH]1 [Tozasertib] (partner 0.1 µM)
An outline of the steps:
as §1

With LXF-289, the relative viability with IU1-47 + OSI-027 (first compound 0.08 µM) is 0.913; in the assay with IU1-47 + OSI-027 (first compound 0.253 µM), 0.768; with IU1-47 + OSI-027 (first compound 0.8 µM), 0.811; with IU1-47 + OSI-027 (first compound 2.53 µM), 0.591; with IU1-47 + OSI-027 (first compound 8 µM), 0.736; with FG-4592 + Alpelisib (first compound 0.08 µM) it was 0.974. Also, the relative viability amounted to 0.963 with FG-4592 + Alpelisib (first compound 0.253 µM); 1.06 in the assay with FG-4592 + Alpelisib (first compound 0.8 µM); 1.05 in the assay with FG-4592 + Alpelisib (first compound 2.53 µM); 1.09 in the assay with FG-4592 + Alpelisib (first compound 8 µM); 1.25 with IU1-47 + AZD7762 (first compound 0.08 µM); 1.14 with IU1-47 + AZD7762 (first compound 0.253 µM). In addition, the relative viability with IU1-47 + AZD7762 (first compound 0.8 µM) was determined as 1.21; in the assay with IU1-47 + AZD7762 (first compound 2.53 µM), 1.07; with IU1-47 + AZD7762 (first compound 8 µM) it was 1.02; with IU1-47 + Tozasertib (first compound 0.08 µM), 0.212; with IU1-47 + Tozasertib (first compound 0.253 µM), 0.203; with IU1-47 + Tozasertib (first compound 0.8 µM), 0.224. Besides, the relative viability with IU1-47 + Tozasertib (first compound 2.53 µM) was found to be 0.22; with IU1-47 + Tozasertib (first compound 8 µM) it was 0.171.

With ABC-1, the relative viability with IU1-47 + OSI-027 (first compound 0.08 µM) worked out at 0.462; with IU1-47 + OSI-027 (first compound 0.253 µM) it was 0.504; with IU1-47 + OSI-027 (first compound 0.8 µM), 0.43; with IU1-47 + OSI-027 (first compound 8 µM), 0.379; with FG-4592 + Alpelisib (first compound 0.08 µM), 1.17; in the assay with FG-4592 + Alpelisib (first compound 0.8 µM), 1.17. Also, the relative viability in the assay with FG-4592 + Alpelisib (first compound 2.53 µM) was determined as 0.958; with FG-4592 + Alpelisib (first compound 8 µM) it was 0.866; with IU1-47 + AZD7762 (first compound 0.08 µM), 0.765; with IU1-47 + AZD7762 (first compound 0.253 µM), 0.671; in the assay with IU1-47 + AZD7762 (first compound 0.8 µM) it was 0.774; with IU1-47 + AZD7762 (first compound 8 µM) it was 0.729. For the same cell line, the relative viability is 0.188 in the assay with IU1-47 + Tozasertib (first compound 0.08 µM), 0.165 in the assay with IU1-47 + Tozasertib (first compound 0.253 µM), 0.158 with IU1-47 + Tozasertib (first compound 0.8 µM) and 0.193 in the assay with IU1-47 + Tozasertib (first compound 8 µM).

Consider NCI-H650, for which the relative viability worked out at 0.507 in the assay with IU1-47 + OSI-027 (first compound 0.08 µM); 0.55 in the assay with IU1-47 + OSI-027 (first compound 0.253 µM); 0.487 with IU1-47 + OSI-027 (first compound 0.8 µM); 0.482 in the assay with IU1-47 + OSI-027 (first compound 2.53 µM); 0.441 in the assay with IU1-47 + OSI-027 (first compound 8 µM); 1.03 with FG-4592 + Alpelisib (first compound 0.08 µM). The relative viability with FG-4592 + Alpelisib (first compound 0.253 µM) amounted to 1.01; in the assay with FG-4592 + Alpelisib (first compound 0.8 µM) it was 1.04; with FG-4592 + Alpelisib (first compound 2.53 µM), 0.939; with FG-4592 + Alpelisib (first compound 8 µM) it was 0.881; with IU1-47 + AZD7762 (first compound 0.08 µM), 1.22; in the assay with IU1-47 + AZD7762 (first compound 0.253 µM), 1. Moreover, the relative viability with IU1-47 + AZD7762 (first compound 0.8 µM) was 1.06; in the assay with IU1-47 + AZD7762 (first compound 2.53 µM) it was 0.947; with IU1-47 + AZD7762 (first compound 8 µM), 1.24; with IU1-47 + Tozasertib (first compound 0.08 µM), 0.759; with IU1-47 + Tozasertib (first compound 0.253 µM), 0.824; in the assay with IU1-47 + Tozasertib (first compound 0.8 µM), 0.751. Also, the results for the relative viability with IU1-47 + Tozasertib (first compound 2.53 µM) and with IU1-47 + Tozasertib (first compound 8 µM) were 0.779 and 0.698, respectively.

For the cell line NCI-H2085, the relative viability with IU1-47 + OSI-027 (first compound 0.08 µM) came out at 0.724; with IU1-47 + OSI-027 (first compound 0.253 µM) it was 0.748; with IU1-47 + OSI-027 (first compound 0.8 µM) it was 0.872; with IU1-47 + OSI-027 (first compound 2.53 µM), 0.531; with IU1-47 + OSI-027 (first compound 8 µM) it was 0.729; with FG-4592 + Alpelisib (first compound 0.08 µM) it was 0.911. In addition, the relative viability with FG-4592 + Alpelisib (first compound 0.253 µM) came out at 0.889; with FG-4592 + Alpelisib (first compound 0.8 µM) it was 0.967; with FG-4592 + Alpelisib (first compound 2.53 µM) it was 1.04; with FG-4592 + Alpelisib (first compound 8 µM), 0.935; in the assay with IU1-47 + AZD7762 (first compound 0.08 µM), 0.983; with IU1-47 + AZD7762 (first compound 0.253 µM), 1.02. The relative viability was 0.997 with IU1-47 + AZD7762 (first compound 0.8 µM); 0.73 in the assay with IU1-47 + AZD7762 (first compound 2.53 µM); 1.02 with IU1-47 + AZD7762 (first compound 8 µM); 0.903 with IU1-47 + Tozasertib (first compound 0.08 µM); 0.79 with IU1-47 + Tozasertib (first compound 0.253 µM); 0.705 in the assay with IU1-47 + Tozasertib (first compound 0.8 µM). Besides, the relative viability with IU1-47 + Tozasertib (first compound 2.53 µM) worked out at 0.835; in the assay with IU1-47 + Tozasertib (first compound 8 µM), 0.774.

On to NCI-H1793, for which the relative viability with IU1-47 + OSI-027 (first compound 0.08 µM) came out at 0.245; in the assay with IU1-47 + OSI-027 (first compound 0.253 µM) it was 0.25; in the assay with IU1-47 + OSI-027 (first compound 0.8 µM) it was 0.37; in the assay with IU1-47 + OSI-027 (first compound 8 µM) it was 0.286; in the assay with FG-4592 + Alpelisib (first compound 0.08 µM) it was 0.772; with FG-4592 + Alpelisib (first compound 0.253 µM), 0.678. In addition, the relative viability with FG-4592 + Alpelisib (first compound 2.53 µM) was determined as 0.719; with FG-4592 + Alpelisib (first compound 8 µM), 0.557; with IU1-47 + AZD7762 (first compound 0.08 µM), 0.716; with IU1-47 + AZD7762 (first compound 0.8 µM), 0.516; with IU1-47 + AZD7762 (first compound 2.53 µM) it was 0.319; with IU1-47 + AZD7762 (first compound 8 µM), 0.338. Moreover, the relative viability turned out to be 0.346 in the assay with IU1-47 + Tozasertib (first compound 0.08 µM), 0.319 in the assay with IU1-47 + Tozasertib (first compound 0.253 µM), 0.296 with IU1-47 + Tozasertib (first compound 0.8 µM) and 0.299 with IU1-47 + Tozasertib (first compound 8 µM).

As to LC-2-ad, the relative viability turned out to be 0.86 with IU1-47 + OSI-027 (first compound 0.08 µM); 0.81 with IU1-47 + OSI-027 (first compound 0.253 µM); 0.75 with IU1-47 + OSI-027 (first compound 0.8 µM); 0.546 with IU1-47 + OSI-027 (first compound 2.53 µM); 0.787 with IU1-47 + OSI-027 (first compound 8 µM); 0.799 with FG-4592 + Alpelisib (first compound 0.08 µM). Further, the relative viability is 0.842 with FG-4592 + Alpelisib (first compound 0.253 µM); 0.865 in the assay with FG-4592 + Alpelisib (first compound 0.8 µM); 0.943 with FG-4592 + Alpelisib (first compound 2.53 µM); 0.926 with FG-4592 + Alpelisib (first compound 8 µM); 0.851 with IU1-47 + AZD7762 (first compound 0.08 µM); 0.84 with IU1-47 + AZD7762 (first compound 0.253 µM). Further, the relative viability in the assay with IU1-47 + AZD7762 (first compound 0.8 µM) turned out to be 0.866; in the assay with IU1-47 + AZD7762 (first compound 8 µM) it was 0.857; in the assay with IU1-47 + Tozasertib (first compound 0.08 µM), 0.465; in the assay with IU1-47 + Tozasertib (first compound 0.253 µM) it was 0.396; with IU1-47 + Tozasertib (first compound 0.8 µM), 0.465; with IU1-47 + Tozasertib (first compound 2.53 µM), 0.444. The relative viability with IU1-47 + Tozasertib (first compound 8 µM) amounted to 0.377.

As to NCI-H1355, the relative viability amounted to 0.396 with IU1-47 + OSI-027 (first compound 0.08 µM); 0.427 with IU1-47 + OSI-027 (first compound 0.253 µM); 0.402 with IU1-47 + OSI-027 (first compound 0.8 µM); 0.395 with IU1-47 + OSI-027 (first compound 8 µM); 0.797 in the assay with FG-4592 + Alpelisib (first compound 0.08 µM); 0.788 with FG-4592 + Alpelisib (first compound 0.253 µM). Besides, the relative viability in the assay with FG-4592 + Alpelisib (first compound 2.53 µM) was determined as 0.869; in the assay with FG-4592 + Alpelisib (first compound 8 µM), 0.743; in the assay with IU1-47 + AZD7762 (first compound 0.08 µM), 0.798; in the assay with IU1-47 + AZD7762 (first compound 0.253 µM), 0.957; with IU1-47 + AZD7762 (first compound 0.8 µM), 0.844; in the assay with IU1-47 + AZD7762 (first compound 8 µM) it was 0.584. Further, the relative viability in the assay with IU1-47 + Tozasertib (first compound 0.08 µM) amounted to 0.483; with IU1-47 + Tozasertib (first compound 0.253 µM) it was 0.606; in the assay with IU1-47 + Tozasertib (first compound 0.8 µM) it was 0.506; with IU1-47 + Tozasertib (first compound 8 µM), 0.546.

For H3255, the relative viability stood at 0.654 with IU1-47 + OSI-027 (first compound 0.08 µM); 0.675 with IU1-47 + OSI-027 (first compound 0.253 µM); 0.624 in the assay with IU1-47 + OSI-027 (first compound 0.8 µM); 0.465 in the assay with IU1-47 + OSI-027 (first compound 2.53 µM); 0.561 with IU1-47 + OSI-027 (first compound 8 µM); 0.634 with FG-4592 + Alpelisib (first compound 0.08 µM). Moreover, the relative viability with FG-4592 + Alpelisib (first compound 0.253 µM) amounted to 0.664; with FG-4592 + Alpelisib (first compound 0.8 µM), 0.67; in the assay with FG-4592 + Alpelisib (first compound 2.53 µM) it was 0.791; with FG-4592 + Alpelisib (first compound 8 µM), 0.81; with IU1-47 + AZD7762 (first compound 0.08 µM), 1.19; in the assay with IU1-47 + AZD7762 (first compound 0.253 µM) it was 1.01. Moreover, the relative viability came to 1.08 in the assay with IU1-47 + AZD7762 (first compound 0.8 µM); 0.877 in the assay with IU1-47 + AZD7762 (first compound 2.53 µM); 0.893 with IU1-47 + AZD7762 (first compound 8 µM); 0.725 with IU1-47 + Tozasertib (first compound 0.08 µM); 0.636 with IU1-47 + Tozasertib (first compound 0.253 µM); 0.643 with IU1-47 + Tozasertib (first compound 0.8 µM). The relative viability is 0.416 with IU1-47 + Tozasertib (first compound 2.53 µM) and 0.752 in the assay with IU1-47 + Tozasertib (first compound 8 µM).
